The values that follow come from US7176195B2, “Fused azepine derivatives and their use as antidiuretic agents” (Ferring BV, priority 2000, dated 2007).

V2 receptor, sequence (P30518 whole entry): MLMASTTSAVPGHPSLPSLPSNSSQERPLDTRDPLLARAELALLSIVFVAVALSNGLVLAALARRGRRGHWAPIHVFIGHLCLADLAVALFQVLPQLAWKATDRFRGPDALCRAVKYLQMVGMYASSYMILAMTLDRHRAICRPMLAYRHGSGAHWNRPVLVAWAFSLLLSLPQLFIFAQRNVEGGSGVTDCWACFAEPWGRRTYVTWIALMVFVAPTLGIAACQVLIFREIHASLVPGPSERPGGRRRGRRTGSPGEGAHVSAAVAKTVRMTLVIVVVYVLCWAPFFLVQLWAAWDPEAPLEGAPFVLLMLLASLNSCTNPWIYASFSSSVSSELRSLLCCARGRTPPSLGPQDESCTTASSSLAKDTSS

One test addresses V2 receptor (Homo sapiens, UniProt P30518). As to the kind of experiment: Determination of V2 receptor agonist activity in vitro (cellular activation). The test is classed as cell-based. Particulars: concentration of compound necessary to cause a half-maximal cellular activation. The procedure:
Determination of V2r Ceptor Agonist Activity in Vitro
Agonist activity was determined for all compounds and is reported as an EC50 value, being that concentration of compound necessary to cause a half-maximal cellular activation.
The compound `O=C(c1ccc(CNS(=O)(=O)Cc2ccccc2[N+](=O)[O-])c([N+](=O)[O-])c1)N1CCCCc2ccccc21` [Example 11, 1-(3-Nitro-4-[2-nitrobenyzlsulfonylaminomethyl]benzoyl)-2,3,4,5-tetrahydro-1H-1-benzazepine] returned an EC50 of 21 nM. `CN(C)c1cc(C(=O)N2CCCCc3ccccc32)ccc1CNC(=O)Nc1c(F)cccc1F` [Example 13, 1-(4-[3-(2,6-Difluorophenyl)ureldomethyl]-3-dimethylaminobenzoyl)-2,3,4,5-tetrahydro-1H-1-benzazepine]: a half-maximal effect (EC50) was put at 38 nM. The same measure, in the same setting: then `Cc1cc(CNC(=O)Nc2c(F)cccc2F)ccc1C(=O)N1CCCN(C)c2ccccc21` [Example 19, 1-(4-[3-(2,6-Difluorophenyl)uredomethyl]-2-methylbenzoyl)-5-methyl-2,3,4,5-tetrahydro-1H-1,5-benzodiazepine], with 40 nM.

In the case of `O=C(NCc1ccc(C(=O)N2CCCCc3ccccc32)cn1)Nc1c(F)cccc1F` [Example 3, 1-(6-[3-(2,6-Difluorophenyl)ureidomethyl]nicotinoyl)-2,3,4,5-tetrahydro-1H-1-benzazepine], the EC50 came out at 300 nM.

Consider `Cc1cc(C(=O)N2CCCNc3ccccc32)ccc1CNC(=O)Nc1c(F)cccc1F` [Example 15, 1-(4-[3-(2,6-Difluorophenyl)ureidomethyl]-3-methylbenzoyl)-2,3,4,5-tetrahydro-1H-1,5-bezazepine], for which the midpoint of the response, the EC50, lay at 44 nM. On the same count and under the same terms, the value for `Cc1cc(C(=O)N2CCCN(CCO)c3ccccc32)ccc1CNC(=O)Nc1c(F)cccc1F` [Example 17, 1-(4-[3-(2,6Difuorophenyl)ureidomethyl]-3-methylbenzoyl)-5-(2-hydroxyethyl)-2,3,4,5-tetrahydro-1H-1,5-benzodiazepine] was 16 nM; that for `O=C(NCc1ccc(C(=O)N2CCCCc3ccccc32)c(Cl)n1)Nc1c(F)cccc1F` [Example 21, 1-(2-Chloro-6-[3-(2,6-difluorophenyl)ureidomethyl]nicotinoyl)-2,3,4,5-tetrahydro-1H-1-benzazepine] was 180 nM; that for `Nc1cc(C(=O)N2CCCCc3ccccc32)ccc1CNC(=O)Nc1c(F)cccc1F` [Example 12, 1-(3-Amino-4-[3-(2,6 difluorophenyl)ureidomethyl]benzoyl)-2,3,4,5-tetrahydro-1H-1-benzazepine] was 50 nM. Compound `Cc1cc(C(=O)N2CCCCc3ccccc32)ccc1CNC(=O)Nc1c(F)cccc1F` [Example 10] came in with an EC50 of 4 nM.

`O=C(NCc1ccc(C(=O)N2CCCCc3ccccc32)cc1)Nc1c(F)cccc1F` [Example 1, 1-(4-[3-(2,6-Difluorophenyl)ureidomethyl]benzoyl)-2,3,4,5-tetrahydro-1H-1-benzazepine] displayed an EC50 of 39 nM. Same read-out and setting: then `Cc1cc(C(=O)N2CCCCc3ccccc32)ccc1CNC(=O)NS(=O)(=O)c1ccccc1` [Example 8, 1-(3-Methyl-4-[3-(phenylsulfonyl)ureidomethyl]benzoyl)-2,3,4,5-tetrahydro-1H-1-benzazepine], with 220 nM. Same read-out and setting: the value for `N#C/N=C(\NCc1ccc(C(=O)N2CCCCc3ccccc32)cc1)Nc1c(F)cccc1F` [Example 2, 1-(4-[3-(2,6-Difluorophenyl)cyanoguanidinomethyl]benzoyl)-2,3,4,5-tetrahydro-1H-1-benzazepine] was 160 nM; that for `COc1cccc(NC(=O)NCc2ccc(C(=O)N3CCCCc4ccccc43)cc2Cl)c1` [Example 4, 1-(3-Chloro-4-[3-(3-methoxyphenyl)ureidomethyl]benzoyl)-2,3,4,5-tetrahydro-1H-1-benzazepine] was 300 nM. Same read-out and setting: then `Cc1cc(C(=O)N2CCC[S+]([O-])c3ccccc32)ccc1CNC(=O)Nc1c(F)cccc1F` (stereo not shown) [Example 25, 5-(4-[3-(2,6-Difluorophenyl)ureidomethyl]-3-methylbenzoyl)-1-oxo-1λ^4-2,3,4,5-tetrahydro-1,5-benzothiazepine], with 280 nM; and `Cc1cc(C(=O)N2CCCCc3sccc32)ccc1CNC(=O)Nc1c(F)cccc1F` [Example 26, 4-(4-[3-(2,6-Difluorophenyl)ureidomethyl]-3-methylbenzoyl)-5,6,7,8-tetrahydro-4H-thieno[3,2-b]azepine], with 10 nM; and `Cn1c(CNC(=O)Nc2c(F)cccc2F)ccc(C(=O)N2CCCCc3ccccc32)c1=O` [Example 22, 1-(6-[3-(2,6-Difluorophenyl)ureidomethyl]-1-methyl-2-oxo-1,2-dihydropyridyl-3-carbonyl)-2,3,4,5-tetrahydro-1H-1-benzazepine], with 1000 nM. On to `Cc1cc(C(=O)N2CCCCc3ccccc32)ccc1CNC(=O)Nc1ccc[nH]c1=O` [Example 9, 1-(3-Methyl-4-[3-(2-oxo-1,2-dihydropyrid-3-yl)ureidomethyl]benzoyl)-2,3,4,5-tetrahydro-1H-1-benzazepine], for which the 50% effective concentration (EC50) turned out to be 50 nM. As for `O=C(c1ccc(CNC(=S)Nc2c(F)cccc2F)c(Cl)c1)N1CCCCc2ccccc21` [Example 6, 1-(3-Chloro-4-[3-(2,6-difluorophenyl)thioureidomethyl]benzoyl)-2,3,4,5-tetrahydro-1H-1-benzazepine], the half-maximal effective concentration (EC50) stood at 47 nM. This EC50 and that of the compound before are within 1.5-fold of each other.

Consider `CN1CCCN(C(=O)c2ccc(CNC(=O)Nc3c(F)cccc3F)c(Cl)c2)c2ccccc21` [Example 18, 1-(3-Chloro-4-[3-(2,6-difluorophenyl)ureidomethyl]benzoyl)-5-methyl-2,3,4,5-tetrahydro-1H-1,5-benzodiazepine], for which the EC50 amounted to 17 nM. Still for that read-out and setting: then `O=C(NCc1ccc(C(=O)N2CCCCc3ccccc32)cc1Cl)Nc1ccccc1Cl` [Example 5, 1-(3-Chloro-4-[3-(2-chloropheny)ureidomethyl]benzoyl)-2,3,4,5-tetrahydro-1H-1-benzazepine], with 150 nM; and `Cc1cc(C(=O)N2CCCCc3cccnc32)ccc1CNC(=O)Nc1c(F)cccc1F` [Example 24], with 92 nM.

The compound `Cc1cc(C(=O)N2CCCCc3ccccc32)cc(C)c1CNC(=O)Nc1c(F)cccc1F` [Example 20] returned an EC50 of 17 nM.

For `O=C(NCc1ccc(C(=O)N2CCCCc3ccccc32)c(F)c1)Nc1c(F)cccc1F` [Example 14, 1-(4-[3-(2,6-Difluorophenyl)ureidomethyl]-2-fluorobenzoyl)-2,3,4,5-tetrahydro-1H-1-benzazepine], a half-maximal effect (EC50) was put at 240 nM. This EC50 lies about 14-fold higher than the previous one. In the case of `Cc1cc(C(=O)N2CCCCc3sccc32)ccc1CNC(=O)Nc1c(F)c(F)cc(F)c1F` [Example 27, 4-(3-Methyl-4-[3-(2,3,5,6-tetrafluorophenyl)ureidomethyl]benzoyl)-5,6,7,8-tetrahydro-4H-thieno[3,2-b]azepine], the EC50 worked out at 23 nM.

In turn, `CCN1CCCN(C(=O)c2ccc(CNC(=O)Nc3c(F)cccc3F)c(C)c2)c2ccccc21` [Example 23, 1-(4-[3-(2,6-Difluorophenyl)ureidomethyl]-3-methylbenzoyl)-5-ethyl-2,3,4,5-tetrahydro-1H-1,5-benzodiazepine] had an EC50 of 40 nM.

Turning to `Cc1cc(CNC(=O)Nc2c(F)cccc2F)ccc1C(=O)N1CCCCc2ccccc21` [Example 7, 1-(4-[3-(2,6-Difluorophenyl)ureidomethyl]-2-methylbenzoyl)-2,3,4,5-tetrahydro-1H-1-benzazepine], the EC50 came to 24 nM. `Cc1cc(C(=O)N2CCCN(Cc3cccnc3)c3ccccc32)ccc1CNC(=O)Nc1c(F)cccc1F` [Example 16, 1-(4-[3-(2,6-Difluorophenyl)ureidomethyl]-3-methylbenzoyl)-5-(3-pyridyl)methyl-2,3,4,5-tetrahydro-1H-1,5-benzodiazepine]: a half-maximal effect (EC50) was put at 16 nM.

A further test has as its system Brattleboro rat. Nature of the test: Determination of antidiuretic activity in vivo (urine output, Brattleboro rat). Particulars: Brattleboro rats, 1 mg/kg p.o. in methylcellulose, vs control animals. The procedure:
Determination of Antidiuretic Activity in Vivo
The Brattleboro rat is a recognised model for vasopressin deficiency (for a review see FD Grant, “Genetic models of vasopressin deficiency”, Exp. Physiol. 85, 203S–209S, 2000). […] Compounds of the invention were administered to Brattleboro rats (0.1–10 mg/kg p.o. in methylcellulose. Urine was callected hourly and volumes were compared with control animals. Animals had free access to food and water throughout the experiment. Representative results are given in Table S. Results for Desmopressin are given for comparison.
As for `Cc1cc(C(=O)N2CCCCc3ccccc32)ccc1CNC(=O)N1CCC[C@H]1C(=O)N(C)C` [Example 39, 1-(2-Methyl-4-(2,3,4,5-tetrahydro-1-benzazepin-1-ylcarbonyl)benzylcarbamoyl)-L-proline-N,N-dimethylamide], the “% inhibition of urine output (at 1 hour)” value came out at 82%. Take `Cc1cc(C(=O)N2CCCCc3ccccc32)ccc1CNC(=O)NCC(=O)N(C)C` [Example 35, 1-(4-[N-(2-Dimethylamino-2-oxoethylcarbamoyl)aminomethyl]-3-methylbenzoyl)-2,3,4,5-tetrahydro-1H-1-benzazepine]: the “% inhibition of urine output (at 1 hour)” value is listed as 45–82%. On the same count and under the same terms, then `CCOC(=O)CNC(=O)NCc1ccc(C(=O)N2CCCCc3ccccc32)cc1C` [Example 32, 1-(4-[N-(2-Ethoxy-2-oxoethylcarbamoyl)aminomethyl]-3-methylbenzoyl)-2,3,4,5-tetrahydro-1H-1-benzazepine], with 74%; and `Cc1cc(C(=O)N2CCCCc3ccccc32)ccc1CNC(=O)NCC(=O)O` [Example 33, 1-(4-[N-(Carboxymethylcarbamoyl)aminomethyl]-3-methylbenzoyl)-2,3,4,5-tetrahydro-1H-1-benzazepine], with 38%.
